Reference: US5985927A, “Medicaments for the selective treatment of tumor tissues” (priority 1995, dated 1999)

How the values were obtained:
[1] = system: mononuclear blood cells (MNCs); experiment: toxicity on mononuclear blood cells (MNCs) as a function of extracellular pH (FACScan and XTT-ELISA); format: cell-based; settings: extracellular pH in the range from 7.2 to 7.4; FIG. 1B
Source text: A skilled person is able to find, with the aid of the above information and using his general expert knowledge and a few simple tests, as described hereinafter, compounds which are used according to the invention as medicinal substance. Thus, the toxicity properties of a substance which comes under consideration can be determined experimentally by the FACScan and the XTT-ELISA techniques. Both methods are known in the prior art. It is possible to investigate suspended cancer cell lines such as, for example, K-562, Raji or Daudi by both techniques, but adherent cancer cell lines only by the XTT-ELISA technique. FACS and XTT techniques can likewise be used to investigate the toxicity of the substances for mononuclear blood cells (MNCs). The proportion of dead cells is detected in the FACS technique by propidium iodide staining, and in the XTT method by conversion of XTT into formazan by mitochondrial dehydrogenase. The methods are described, for example, in Tumor-Biologie 1994, 15, 304 and in the biochemistry catalog of Boehringer Mannheim, Germany 0392.C 73.3.1465554 1 CB, Cat. No. 1465 015. […]

K-562 cancer cells = experiment: toxicity effect on K-562 cancer cells as a function of extracellular pH (FACScan and XTT-ELISA); format: cell-based
Source text: Thus, the toxicity properties of a substance which comes under consideration can be determined experimentally by the FACScan and the XTT-ELISA techniques. Both methods are known in the prior art. […] FACS and XTT techniques can likewise be used to investigate the toxicity of the substances for mononuclear blood cells (MNCs). The proportion of dead cells is detected in the FACS technique by propidium iodide staining, and in the XTT method by conversion of XTT into formazan by mitochondrial dehydrogenase.
To detect pH-sensitive toxic substances, selected substances are allowed to act at various predetermined pH values, for example at pH 5.5, 6.0, 6.5, 7.0 and 7.5, both on tumor cell lines and on MNCs, for example for 4 hours and 24 hours, in order thereafter to measure the number of killed cancer cells or MNCs. Control measurements without addition of pH-sensitive substances are carried out in parallel with this.
The activity of the 4-succinic ester of 2,4-dihydroxybenzoic acid, of trans-3,4-difluorocinnamic acid and of 2,4-dinitrophenol has been investigated. Used for this purpose were the methods of the FACScan and ELISA techniques described above. […] FIG. 2A depicts the effect of trans-3,4-difluorocinnamic acid on K-562 cells. […] FIG. 2B depicts the effect of the same compound on MNCs.

[2] = system: small-cell lung tumor (LXFS 650); experiment: tumor growth of implanted small-cell lung tumor (LXFS 650) in nude mice; format: in vivo; settings: tail vein injection, 4 consecutive days, FIG. 4
Source text: The three compounds mentioned above by way of example have likewise been investigated for their in vivo suitability in an animal model. Nude mice are chosen as animal model, into which it is possible to implant various human tumors. This makes it possible to investigate the therapeutic efficacy of the substances under defined reproducible conditions. An animal experiment of this type is documented in FIG. 4. A routine method which is conventional in the prior art and is outlined below is used.
A small-cell lung tumor (LXFS 650) whose extra-cellular pH of about 6.9 is close to the physiological pH of 7.2-7.3 is implanted into the nude mice. The therapeutic substance used is, as in FIG. 1, 2,4-di-hydroxybenzoic acid (substance (1)). 3-4 weeks after implantation of the tumor, 15 mice with tumors 5-7 mm in diameter are divided into 3 groups: the first group of 5 serves as control group without therapy, and the substance (1) is injected into the tail vein in a concentration of 200 mg/kg/day in the second group of 5 and in a concentration of 400 mg/kg/day in the third group of 5. In the present experiment, 4 injections into the tail vein were carried out on 4 consecutive days. […] The tumor volumes were determined on days 7, 10, 14 and 17.

[3] = K-562 cancer cells, extracellular pH, FIG. 1A

Question: Which results are given for `O=C(O)CCC(=O)Oc1ccc(C(=O)O)c(O)c1` [4-succinic ester of 2,4-dihydroxybenzoic acid]?
Answer: toxicity on MNCs [1]: Negligible toxicity; pH of maximum toxicity effect on K-562 cells (K-562 cancer cells; [3]): 5.7; pH of onset of toxicity effect on K-562 cells (K-562 cancer cells; [3]): ~6.5

Question: With `O=C(O)/C=C/c1ccc(F)c(F)c1` [trans-3,4-difluorocinnamic acid] as the compound, how does the “extracellular pH until which the cytotoxic effect on K-562 cells is negligible” value (K-562 cancer cells; cytotoxic effect negligible until the extracellular pH is below this value, K-562 cells, FIG. 2A) read?
Answer: The value was “below 6.5”.

Question: What does the source list for `O=C(O)c1ccc(O)cc1O` [substance (1), 2,4-di-hydroxybenzoic acid]?
Answer: effect on tumor growth ([2]; 200 mg/kg/day, only on day 10): onset of a slight effect only on day 10; tumor growth ([2]; 400 mg/kg/day, after day 7 and up to day 10): cessation of growth; tumor growth after end of therapy ([2]; 400 mg/kg/day, after day 10, therapy not continued further): the tumor starts to grow again
